For 1 compound, melting point results are on record in US7300934B2, “Benzamide nitriles” (Roche Palo Alto LLC, priority 2003, dated 2007).

Structures are written as SMILES.

Take `CC(C)C[C@@H](C#N)NC(=O)[C@@H]1CCCC[C@@H]1NC(=O)c1ccc(-n2cncn2)cc1` [Compound 32, N-[(1S,2R)-2-({[(1S)-1-cyano-3-methylbutyl]amino}carbonyl)cyclohexyl]-4-(1H-1,2,4-triazol-1-yl)benzamide]: the melting point (commonly the temperature of the solid-liquid transition) was in the range of 156 to 158.9 °C.
